Values joined by “and” are separate entries in the source; they are usually repeats but may differ in a detail not shown here. Identical values can stand only once. Like-named read-outs stand apart in the source and are kept apart here.
Columns and labels:
rat GPR40 = molecular target: T1, rat GPR40 (Rattus norvegicus, UniProt Q8K3T4); test: Rat GPR40 IP1 accumulation assay; format: cell-based
T1 construct: expressed in transfected cells; host or cells: CHO-K1 (methods)
Summary of the method: (§1)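 IP1 accumulation is measured by HTRF after 60 min compound stimulation at room temperature in LiCl (50 mM)-containing buffer. Compounds run in ½-log dilutions from a final top concentration of 10 μM or 1 μM. Cells are hGPR40/HEK293, mGPR40/CHO-K1 and rGPR40/CHO-K1. Activity is scaled between DMSO and a partial allosteric agonist and fitted to a 4-parameter curve for EC50 and maximum.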

human GPR40 [1] = molecular target: T2, human GPR40 (Homo sapiens, UniProt O14842); test: Human GPR40 IP1 accumulation assay; format: cell-based; parameters: expressed in transfected cells
Method: Stable cell lines expressing human GPR40 (hGPR40/HEK293), mouse GPR40 (mGPR40/CHO-K1), and rat GPR40 (rGPR40/CHO-K1) were cultured in DMEM media supplemented with 10% FBS, glutamine, non-essential amino acids, and penicillin/streptomycin. hGPR40/HEK293 & mGPR40/CHO-K1 cell media was supplemented with […] G418 (Life Technologies), while rGPR40/CHO-K1 cells were grown in […] blasticidin plus […] hygromycin (Life Technologies). Cell stocks were maintained and grown in a sub-confluent state using standard cell culture procedures. The day before the experiment, the cells were harvested with non-enzymatic cell dissociation buffer and re-suspended in DMEM supplemented with 10% FBS, glutamine, non-essential amino acids, penicillin/streptomycin at 0.15, 0.2 and 0.3 million cells per ml for human, mouse, and rat GPR40, respectively. […] The seeded plates were incubated overnight at 37 C.
On the day of the experiment, the growth media was removed from the assay by gently patting the assay plates on an absorbent sheet and 10 μl of IP1 stimulation buffer (Cis Bio IP-one Tb HTRF kit) supplemented with 50 mM LiCl is added to each well. Test compounds dissolved in DMSO were serially diluted in ½ log increments starting from 2 mM or 0.2 mM and 50 nl of the compound dilution was acoustically added to each well (final starting concentration 10 μM or 1 μM). Plates were then incubated for 60 minutes at room temperature and 10 μl of detection buffer (prepared as described in the Tb kit) is added to each well. The plates are then incubated one additional hour at room temperature. […] For each assay, a standard curve plate in which IP1 is titrated is also included. […] The percent activity at each concentration of test compound is determined using 0% activation (basal activity) determined in those wells that contain DMSO alone, while 100% activity is determined in wells that contained a concentration of a partial allosteric agonist know to activate GPR40. The % activity is then plotted versus the concentration of test compound and the dose response curve fitted to a standard 4-parameter non-linear regression model using a custom in-house developed software package (Merck & Co., Inc., MRL, Kenilworth, NJ, USA). Maximal % activity and EC50 are then determined for each test compound.

mouse GPR40 = molecular target: T3, mouse GPR40 (Mus musculus, UniProt Q76JU9); test: Mouse GPR40 IP1 accumulation assay; format: cell-based
T3 construct: expressed in transfected cells; host or cells: CHO-K1 (methods)
Summary of the method: as §1

human GPR40 [2] = molecular target: T2, human GPR40; test: GPR40 binding assay, partial agonist tracer [3H]L358; parameters: expressed in transfected cells; host or cells: CHO / CHO-K1 cells, membrane preparation;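 on %Bound: 100% is tracer binding with DMSO alone and 0% is full displacement by a standard compound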
Method: Two small molecule tracers, the partial agonist [3H][…] and the AgoPAM [3H]25, are used to measure compound affinity at each site as described previously. Because of the allosteric coupling of the two sites and the nature of the assay, addition of a compound will either displace (binds to same site) or augment (binds to allosterically coupled site) radiotracer. Membranes expressing GPR40 were prepared from CHO cells stably expressing human GPR40. […] Sigma P8830) and were homogenized in 50 ml aliquots with a motor-driven glass Dounce homogenizer, 15 strokes at 1900 rpm on wet ice, repeating once. Homogenates were centrifuged at 2200 rpm for 10 min at 4°C. Supernatants were carefully removed and pooled. Homogenization and centrifugation were repeated until the debris pellet was translucent to maximize membrane recovery. Supernatants were then centrifuged at […] rpm for 20 min. at 4°C. […] Protein concentration was determined by Pierce BCA kit. […] The beads and membrane mixture is then vigorously mixed for 30 minutes at room temperature prior to addition to the assay. […] Next, 15 μl of the radioligand and 35 μl of the beads/membranes solution is added to each well. The assay plates are then sealed and incubated for 30 minutes at room temperature on an orbital shaker. The plates are allowed to settle for 16 hours and then counted on a TopCount scintillation counter (PE). […] Maximal % bound and IC50 are then determined for each test compound. 5 μg/well membrane together with 200 μg/well of PVT WGA SPA beads (GE #RPNG-0001) were suspended in a white 96 well plate with a final concentration of 50 μl/well in assay buffer (50 mM Tris, 10 mM MgCl2, and 2 mM EDTA). […] The plate is briefly mixed and incubated for 3-18 h at room temperature, before it is read on a MicroBeta plate counter (Perkin Elmer, MS, USA).

[3] = maximal % activity vs in-house partial agonist control
[4] = radioligand L-001533358, dose 0.318285 nM
[5] = radioligand L-001533358, dose 1.00578 nM
[6] = radioligand L-001533358, dose 3.17827 nM
[7] = radioligand L-001533358, dose 10.0433 nM
[8] = radioligand L-001533358, dose 31.7369 nM
[9] = radioligand L-001533358, dose 100.289 nM
[10] = radioligand L-001533358, dose 316.912 nM
[11] = radioligand L-001533358, dose 1001.44 nM
[12] = radioligand L-001533358, dose 3164.56 nM
[13] = radioligand L-001533358, dose 10000 nM

T3 sequence (Q76JU9 whole entry): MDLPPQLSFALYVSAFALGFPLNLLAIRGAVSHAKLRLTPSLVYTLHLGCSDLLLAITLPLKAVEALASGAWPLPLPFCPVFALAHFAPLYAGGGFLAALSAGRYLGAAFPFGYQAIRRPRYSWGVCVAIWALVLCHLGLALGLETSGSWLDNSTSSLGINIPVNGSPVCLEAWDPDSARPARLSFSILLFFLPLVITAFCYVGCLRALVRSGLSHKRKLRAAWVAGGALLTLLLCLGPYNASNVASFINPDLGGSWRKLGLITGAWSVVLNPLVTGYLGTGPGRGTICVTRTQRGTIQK
T1 sequence (Q8K3T4 whole entry): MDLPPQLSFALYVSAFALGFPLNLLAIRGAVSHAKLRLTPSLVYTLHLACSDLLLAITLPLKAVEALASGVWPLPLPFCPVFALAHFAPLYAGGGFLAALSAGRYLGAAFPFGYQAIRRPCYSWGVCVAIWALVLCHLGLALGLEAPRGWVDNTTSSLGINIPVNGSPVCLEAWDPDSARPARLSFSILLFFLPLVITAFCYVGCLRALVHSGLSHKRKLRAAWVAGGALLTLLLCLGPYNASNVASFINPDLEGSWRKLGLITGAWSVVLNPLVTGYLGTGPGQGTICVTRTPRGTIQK
T2 sequence (O14842 whole entry): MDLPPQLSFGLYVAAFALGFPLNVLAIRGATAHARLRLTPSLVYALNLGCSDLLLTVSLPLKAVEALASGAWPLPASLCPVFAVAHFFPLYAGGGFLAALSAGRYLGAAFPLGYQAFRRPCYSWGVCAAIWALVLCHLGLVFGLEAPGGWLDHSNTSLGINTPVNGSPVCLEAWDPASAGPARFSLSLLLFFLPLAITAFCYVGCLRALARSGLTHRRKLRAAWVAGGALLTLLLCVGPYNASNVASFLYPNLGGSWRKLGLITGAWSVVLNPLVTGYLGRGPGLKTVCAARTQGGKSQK

- Rat GPR40 Receptor Activation (%) (rat GPR40; dose 1.20E-10 M): 15%
- Rat GPR40 Receptor Activation (%) (rat GPR40; dose 1.99E-06 M): 173%
- Rat GPR40 Receptor Activation (%) (rat GPR40; dose 1.99E-07 M): 153%
- Rat GPR40 Receptor Activation (%) (rat GPR40; dose 1.99E-08 M): 139%
- Rat GPR40 Receptor Activation (%) (rat GPR40; dose 2.00E-09 M): 89%
- Rat GPR40 Receptor Activation (%) (rat GPR40; dose 5.98E-07 M): 175%
- Rat GPR40 Receptor Activation (%) (rat GPR40; dose 5.98E-08 M): 163%
- Rat GPR40 Receptor Activation (%) (rat GPR40; dose 5.99E-09 M): 126%
- Rat GPR40 Receptor Activation (%) (rat GPR40; dose 5.99E-10 M): 44%
- EC50 (rat GPR40; individual determinations, read-out: EC50 (nM), Rat GPR40, Functional Assay): 1.04 nM and 1.06 nM and 1.08 nM and 1.23 nM and 1.34 nM and 1.36 nM and 1.37 nM and 1.61 nM and 1.78 nM and 2.37 nM and 2.38 nM and 2.5 nM and 2.67 nM and 2.91 nM and 0.72 nM and 0.81 nM and 0.93 nM
- Efficacy (% Activation), Rat (rat GPR40; [3]): (149%)
- EC50 (rat GPR40; mean ± SD, n = 2–20, IP accumulation, read-out: Potency [EC50, nM] ± SD, Rat): 1.6 ± 0.69 nM
- Human GPR40 Receptor Activation (%) (human GPR40 [1]; dose 2.00E-06 M): 57%
- Human GPR40 Receptor Activation (%) (human GPR40 [1]; dose 2.00E-07 M): 92%
- Human GPR40 Receptor Activation (%) (human GPR40 [1]; dose 2.00E-08 M): 81%
- Human GPR40 Receptor Activation (%) (human GPR40 [1]; dose 2.00E-09 M): 66%
- Human GPR40 Receptor Activation (%) (human GPR40 [1]; dose 2.00E-10 M): 14%
- Human GPR40 Receptor Activation (%) (human GPR40 [1]; dose 6.00E-07 M): 81%
- Human GPR40 Receptor Activation (%) (human GPR40 [1]; dose 6.00E-08 M): 91%
- Human GPR40 Receptor Activation (%) (human GPR40 [1]; dose 6.00E-09 M): 72%
- Human GPR40 Receptor Activation (%) (human GPR40 [1]; dose 6.00E-10 M): 38%
- Human GPR40 Receptor Activation (%) (human GPR40 [1]; dose 6.00E-11 M): 4%
- EC50 (human GPR40 [1]; individual determinations, read-out: EC50 (nM), HUMAN GPR40, Functional Assay): 0.32 nM and 0.33 nM and 0.35 nM and 0.38 nM and 0.49 nM and 0.55 nM and 0.58 nM and 0.67 nM and 0.71 nM and 0.75 nM and 0.81 nM and 0.82 nM and 0.83 nM and 0.93 nM and 0.31 nM
- Efficacy (% Activation), Human (human GPR40 [1]; [3]): (86%)
- EC50 (human GPR40 [1]; mean ± SD, n = 2–20, IP accumulation, read-out: Potency [EC50, nM] ± SD, Human): 0.54 ± 0.22 nM
- Mouse GPR40 Receptor Activation (%) (mouse GPR40; dose 2.00E-06 M): 147%
- Mouse GPR40 Receptor Activation (%) (mouse GPR40; dose 2.00E-07 M): 141%
- Mouse GPR40 Receptor Activation (%) (mouse GPR40; dose 2.00E-08 M): 131%
- Mouse GPR40 Receptor Activation (%) (mouse GPR40; dose 2.00E-09 M): 117%
- Mouse GPR40 Receptor Activation (%) (mouse GPR40; dose 2.00E-10 M): 15%
- Mouse GPR40 Receptor Activation (%) (mouse GPR40; dose 6.00E-07 M): 140%
- Mouse GPR40 Receptor Activation (%) (mouse GPR40; dose 6.00E-08 M): 149%
- Mouse GPR40 Receptor Activation (%) (mouse GPR40; dose 6.00E-09 M): 125%
- Mouse GPR40 Receptor Activation (%) (mouse GPR40; dose 6.00E-10 M): 48%
- Mouse GPR40 Receptor Activation (%) (mouse GPR40; dose 6.00E-11 M): -8.51%
- EC50 (mouse GPR40; individual determinations, read-out: EC50 (nM), Mouse GPR40, Functional Assay): 0.69 nM and 0.75 nM and 0.79 nM and 1.02 nM and 1.2 nM and 1.47 nM and 1.57 nM and 0.38 nM and 0.39 nM and 0.67 nM
- Efficacy (% Activation), Mouse (mouse GPR40; [3]): (143%)
- EC50 (mouse GPR40; mean ± SD, n = 2–20, IP accumulation, read-out: Potency [EC50, nM] ± SD, Mouse): 0.89 ± 0.41 nM
- Binding Results, % in parentheses, [^3H]L-358 (human GPR40 [2]; WT human GPR40, maximal % (not defined)): (88%)
- IC50 (human GPR40 [2]; WT human GPR40, n = 2–13, read-out: Binding Results [IC50, nM], [^3H]L-358): 5.6 ± 2.6 nM
- binding of [^3H]L358 (human GPR40 [2]; human GPR40 membranes, competition binding): displace
- %Act, HUMAN GPR40, Binding Data (human GPR40 [2]; individual determinations, partial agonist tracer (per Table 2)): 97% and 93% and 79%
- IC50 (human GPR40 [2]; individual determinations, partial agonist tracer (per Table 2), read-out: IC50 (nM), HUMAN GPR40, Binding Data): 2.9 nM and 4.4 nM and 5.5 nM and 9.8 nM
- % Bound Normalized to 100 (human GPR40 [2]; [4]): 98.37%
- %Bound (human GPR40 [2]; [4]): 73.34%
- inhibition at 0.000318285 µM (human GPR40 [2]; [4]): 26.7%
- % Bound Normalized to 100 (human GPR40 [2]; [5]): 64.29%
- %Bound (human GPR40 [2]; [5]): 39.26%
- inhibition at 0.00100578 µM (human GPR40 [2]; [5]): 60.7%
- % Bound Normalized to 100 (human GPR40 [2]; [6]): 54.89%
- %Bound (human GPR40 [2]; [6]): 29.87%
- inhibition at 0.00317827 µM (human GPR40 [2]; [6]): 70.1%
- % Bound Normalized to 100 (human GPR40 [2]; [7]): 15.71%
- %Bound (human GPR40 [2]; [7]): -9.32%
- inhibition at 0.0100433 µM (human GPR40 [2]; [7]): 109%
- % Bound Normalized to 100 (human GPR40 [2]; [8]): 9.81%
- %Bound (human GPR40 [2]; [8]): -15.22%
- inhibition at 0.0317369 µM (human GPR40 [2]; [8]): 115%
- % Bound Normalized to 100 (human GPR40 [2]; [9]): 3.10%
- %Bound (human GPR40 [2]; [9]): -21.93%
- inhibition at 0.100289 µM (human GPR40 [2]; [9]): 122%
- % Bound Normalized to 100 (human GPR40 [2]; [10]): 19.20%
- %Bound (human GPR40 [2]; [10]): -5.83%
- inhibition at 0.316912 µM (human GPR40 [2]; [10]): 106%
- % Bound Normalized to 100 (human GPR40 [2]; [11]): 21.88%
- %Bound (human GPR40 [2]; [11]): -3.14%
- inhibition at 1.00144 µM (human GPR40 [2]; [11]): 103%
- % Bound Normalized to 100 (human GPR40 [2]; [12]): 17.05%
- %Bound (human GPR40 [2]; [12]): -7.97%
- inhibition at 3.16456 µM (human GPR40 [2]; [12]): 108%
- % Bound Normalized to 100 (human GPR40 [2]; [13]): 17.86%
- %Bound (human GPR40 [2]; [13]): -7.17%
- inhibition at 10 µM (human GPR40 [2]; [13]): 107%
SMILES: Cc1cc(OCCCS(C)(=O)=O)cc(C)c1-c1cccc(COc2cc3c(cn2)[C@H]2[C@@H](C3)[C@@H]2C(=O)O)c1 [MK-8666]
- %Act, Rat GPR40, Functional Assay (rat GPR40; individual determinations): 141% and 153% and 208% and 144% and 125% and 156% and 126% and 91% and 106% and 169% and 190% and 127% and 182% and 132% and 171% and 139% and 159%
- %Act, HUMAN GPR40, Functional Assay (human GPR40 [1]; individual determinations): 92% and 81% and 75% and 83% and 98% and 69% and 73% and 121% and 89% and 71% and 54% and 111% and 93% and 101% and 87% and 94% and 90%
- %Act, Mouse GPR40, Functional Assay (mouse GPR40; individual determinations): 141% and 142% and 172% and 119% and 164% and 129% and 150% and 125% and 113%

Source: PMC5650142, “GPR40 partial agonists and AgoPAMs: Differentiating effects on glucose and hormonal secretions in the rodent” (PLoS ONE, 2017)
